doi:10.1101/2021.03.27.437323v2 (biorxiv, 2021)

Biological target: SARS-CoV-2 main protease (M^pro; NSP5; 3CL M^pro) (Severe acute respiratory syndrome coronavirus 2, UniProt P0DTD1)
Experiment: biochemical
Details: read-out: % Residual activity at 20 µM

Row | SMILES | remaining activity at 20 µM [%]
1 | Cc1ccccc1CC(=O)NC(Cc1ccccc1)c1nc2ccccc2[nH]1 (stereo not drawn) [MCULE-2322094178] | 83
2 | COc1ccc(-c2[nH]ncc2CNCc2ccccc2C)cc1 [MCULE-5715268546] | 83
3 | O=C(NC(Cc1ccccc1)c1nc2ccccc2[nH]1)c1cccc(F)c1 (stereo not drawn) [MCULE-6499664919] | 83
